No end group written: not given here.
Key:
[1] = tested on: HT-29 (human colon adenocarcinoma); assay: Apoptosis assay, HT-29 cells; conditions: for apoptotic activity / morphology (in words): 5 μM, 4 hours
Method: Prostate cancer cell line LNCAP was routinely used for the isolation of Apogen P-1 and Apogen P-2, whereas leukemia cell line HL-60 was used for the isolation of Apogen L. The methods of assays were as follows: LNCAP or HL-60 (1,000 cells) was seeded in 10 microliters RPMI containing 15% or 20% Fetal bovine serum, penicillin and streptomycin at 37 degrees, 5% CO2 in Microtray plates (25 μl wells, Robbins Scientific Corp.). The tested sample (10 μl) was added 3-4 hours after cells were seeded. After incubation of the tested sample with cells for 15 hours, two microliters of Hoechst dye (0.03 ng/ml in PBS) was added. Two hours later, cells that were stained with Hoechst dye were examined under fluorescence microscope. […] The percentage of apoptotic cells was calculated by the following equation:
The DNA condensation, DNA fragmentation and peripheral crescents of the nuclei are characteristics of a cell under apoptosis.

cancer cell lines = assay: Apoptosis assay, cancer cells (cell line not given); format: cell-based
[2] = tested on: LNCaP (prostate cancer) cells; assay: Cell death (apoptosis) assay, LNCaP cells; format: cell-based, human; conditions: for apoptotic activity / membrane blebbing (in words): chemically synthesized peptide, three (3) hours of incubation
Method: […] The free Zinc Acetate and Barium Acetate were removed by repetitive concentration. Fetuin was tested in LNCaP and HL-60 cells. […] Fetuin (in 10 μl PBS) at concentration of 100 ng/ml was added 3-4 hours after the cells were seeded.

[3] = tested on: CCD-18 Co (human normal colon fibroblast); assay: Apoptosis assay, CCD-18 Co cells; format: cell-based; conditions: various concentrations of SEQ ID NO: 1
Description: Zinc charged alpha 1-acid glycoprotein has no effect on CCD 18Co cells (human normal colon fibroblast).

[4] = various concentrations of SEQ ID NO: 1

calcium charged alpha 1-acid glycoprotein: alpha 1-acid glycoprotein pre-incubated with EDTA and recharged with calcium [reference compound]
apoptotic activity / morphology (in words) [1]: no apoptotic activity was seen

alpha 1-acid glycoprotein (without zinc): alpha 1-acid glycoprotein pre-incubated with EDTA without recharging with zinc [reference compound]
induction of apoptosis in cancer/tumor cell lines (in words) (cancer cell lines): failed to induce apoptosis | apoptotic activity / morphology (in words) [1]: no apoptotic activity was seen

S-A-S-G-E-A-F-H (SASGEAFH; Polypeptide fragment from treatment of fetuin from bovine sera as described in the specification.) [SEQ ID NO: 2, chemically synthesized bovine fetuin fragment, amino acid no; 310-317]
apoptotic activity / membrane blebbing (in words) [2]: did not show any apoptotic activity

alpha 1-acid glycoprotein purchased from Sigma, after zinc charging: commercial alpha 1-acid glycoprotein after zinc charging
induction of apoptosis in cancer/tumor cell lines (in words) (cancer cell lines): contained the same activity

calcium charged alpha 1-antitrypsin: alpha 1-antitrypsin pre-incubated with EDTA and recharged with calcium [reference compound]
apoptotic activity / morphology (in words) [1]: no apoptotic activity was seen

HTFSGVASVE [SEQ ID NO: 1, H-T-F-S-G-V-A-S-V-E]
induction of apoptosis (in words) [3]: without affecting | induced apoptosis ([1]; 0.4 μM, four (4) hours): 52% | cells induced to apoptosis (in words) ([1]; 0.4 μM, six (6) hours): almost all | induction of apoptosis (in words) [1, 4]: induced apoptosis | apoptotic activity / membrane blebbing (in words) [2]: caused membrane “blebbing” | potency relative to fetuin prepared from other methods ([2]; estimate): several thousand times | potency relative to Supercharged Zinc Fetuin ([2]; estimate, see FIG. 13): eight to ten times | induction of apoptosis (in words) [2, 4]: induced apoptosis

alpha 1-antitrypsin (without zinc): alpha 1-antitrypsin pre-incubated with EDTA without recharging with zinc [reference compound]
induction of apoptosis in cancer/tumor cell lines (in words) (cancer cell lines): failed to induce apoptosis | apoptotic activity / morphology (in words) [1]: no apoptotic activity was seen

B1: alpha 2-HS glycoprotein (without zinc): alpha 2-HS glycoprotein pre-incubated with EDTA without recharging with zinc (protein, UniProt P02765 19-300; P02765 341-367, looked up)
Alpha-2-HS-glycoprotein chain … 1: APHGPGLIYRQPNCDDPETEEAALVAIDYINQNLPWGYKHTLNQIDEVKVWPQQPSGELFEIEIDTLETTCHVLDPTPVARCSVRQLKEHAVEGDCDFQLLKLDGKFSVVYAKCDSSPDSAEDVRKVCQDCPLLAPLNDTRVVHAAKAALAAFNAQNNGSNFQLEEISRAQLVPLPPSTYVEFTVSGTDCVAKEATEAAKCNLLAEKQYGFCKATLSEKLGGAEVAVTCMVFQTQPVSSQPQPEGANEAVPTPVVDPDAPPSPPLGAPGLPPAGSPPDSHVL
Alpha-2-HS-glycoprotein chain … 2: TVVQPSVGAAAGPVVPPCPGRIRHFKV
modifications: EDTA treated
notes: alpha 2-HS glycoprotein pre-incubated with EDTA without recharging with zinc
induction of apoptosis in cancer/tumor cell lines (in words) (cancer cell lines): fails to induce apoptosis | apoptotic activity / morphology (in words) [1]: no apoptotic activity was seen

B2: calcium charged alpha 2-HS glycoprotein: alpha 2-HS glycoprotein pre-incubated with EDTA and recharged with calcium (protein, UniProt P02765 19-300; P02765 341-367, looked up)
Alpha-2-HS-glycoprotein chain … 1: B1 Alpha-2-HS-glycoprotein chain … 1
Alpha-2-HS-glycoprotein chain … 2: TVVQPSVGAAAGPVVPPCPGRIRHFKV
modifications: calcium charged
apoptotic activity / morphology (in words) [1]: no apoptotic activity was seen

B3: Fetuin purchased from Sigma: commercial fetuin prepared by ammonium sulfate precipitation and EDTA treatment (protein, UniProt P12763 19-359, looked up)
Alpha-2-HS-glycoprotein: IPLDPVAGYKEPACDDPDTEQAALAAVDYINKHLPRGYKHTLNQIDSVKVWPRRPTGEVYDIEIDTLETTCHVLDPTPLANCSVRQQTQHAVEGDCDIHVLKQDGQFSVLFTKCDSSPDSAEDVRKLCPDCPLLAPLNDSRVVHAVEVALATFNAESNGSYLQLVEISRAQFVPLPVSVSVEFAVAATDCIAKEVVDPTKCNLLAEKQYGFCKGSVIQKALGGEDVRVTCTLFQTQPVIPQPQPDGAEAEAPSAVPDAAGPTPSAAGPPVASVVVGPSVVAVPLPLHRAHYDLRHTFSGVASVESSSGEAFHVGKTPIVGQPSIPGGPVRLCPGRIRYFKI
induction of apoptosis in cancer/tumor cell lines (in words) (cancer cell lines): very low activity | concentration at which apoptosis inducing activity was observed ([2]; long incubation time (2 days)): > 250 µg/mL | concentration at which apoptosis was induced ([2]; long incubation time (2 days)): > 5 mM

B4: natural fetuin: natural fetuin whose carbohydrate moiety was removed by certain enzymes (protein, UniProt P12763 19-359, looked up)
Alpha-2-HS-glycoprotein: B3 Alpha-2-HS-glycoprotein
modifications: deglycosylated
notes: natural fetuin whose carbohydrate moiety was removed by certain enzymes
boost of apoptotic inducing activity when carbohydrate moiety removed by certain enzymes (cancer cell lines): 2-3 fold

B5: supercharged zinc fetuin: Section 4A fetuin stripped of ions with EDTA and reloaded with 0.5 M Zinc Acetate (protein, UniProt P12763 19-359, looked up)
Alpha-2-HS-glycoprotein: B3 Alpha-2-HS-glycoprotein
modifications: zinc charged
notes: Section 4A fetuin stripped of ions with EDTA and reloaded with 0.5 M Zinc Acetate
enhancement of ability to induce apoptosis versus original fetuin bound with zinc (Section 4A) ([2]; from LD50 on LNCaP cells incubated for 6 hours): three to four times

B6: Fetuin-Ca: fetuin bound with calcium (protein, UniProt P12763 19-359, looked up)
Alpha-2-HS-glycoprotein: B3 Alpha-2-HS-glycoprotein
modifications: calcium bound
induction of apoptosis in cancer/tumor cell lines (in words) (cancer cell lines): inactive in inducing apoptosis

B7: E. Coli-expressed fetuin: recombinant bovine fetuin expressed in E. Coli (protein, UniProt P12763 19-359, looked up)
Alpha-2-HS-glycoprotein: B3 Alpha-2-HS-glycoprotein
modifications: expressed in E. coli
apoptotic activity relative to supercharged zinc fetuin (Section 4F) (cancer cell lines): about 5 times

— patent US8247380B2, “Alpha 1-acid glycoprotein, alpha 2-HS glycoprotein, alpha 1-antitrypsin, and fragments thereof induce apoptosis in cancer cell lines” (Ambryx Biotechnology, D.C., priority 1997, dated 2012)
